This test concerns weeds. The test can be described thus: Activity test of the compositions, soil sealing treatment. The class given is in vivo. Conditions: for pest or weed control at 480 g/ha: B 32 g a.i./mu. Here is the method: The desired active ingredient B was purchased from a reagent company or synthesized by a known method. The technical materials were all dissolved in acetone and diluted with an aqueous solution containing 0.10% emulsifier Tween-80 which were to be used immediately after dilution.
Weeds are cultivated in a controllable sunlight greenhouse at 20 to 30° C., in natural light, and with relative humidity of 57% to 72%. […] The test soil was filled quantitatively to ¾ of the pots and then watered from the bottom of the pots to completely wet the soil to saturation. The test weed seeds were accelerated to just germinate, and then evenly and quantitatively sowed on the surface, then covered with 0.5-1 cm soil according to the seed size, and ready for use 72 hours after sowing.
Each treatment was repeated 4 times. Four pots with 20 weed seeds per pot were treated each time.
The well-sowed test materials were evenly placed on a platform with an area of 0.5 m^2, and solution of agents was sprayed on the soil by the 3WP-2000-type walking spray tower at a dosage of 450 kg/ha and at a spray pressure of 0.3 MPa. After all the solution was sprayed, the valve was closed. After 30 seconds, the door of the spray tower was opened, and the nutritional bowl was taken out. Then the valve was opened, and the spray tube was cleaned by spraying 50 ml of water.
A method for investigating absolute numbers was employed. Whole seedlings of survival weeds were cut off with a blade along the soil surface, and the fresh weight of the weeds was weighed with an analytical balance. For dead weeds, the fresh weight thereof was zero.
The investigation was performed 21 days after the treatment for only once in total.

Where [1] appears, read: Lolium multiflorum, soil (S), B 16 g a.i./mu, read-out: Control effect (%) of B applied alone (B).
[2] abbreviates: Lolium multiflorum, soil (S), read-out: Control effect (%) of B applied alone (B).
[3] abbreviates: Echinochloa crus-galli, soil, read-out: Control effect (%) of B applied alone (B).
Where [4] appears, read: Echinochloa crusgalli, soil (S), B 0.5 g a.i./mu.
[5] abbreviates: Echinochloa crusgalli, soil (S), B 1 g a.i./mu.
The mark [6] stands for this setting: Echinochloa crus-galli, Echinochloa crusgalli, soil (S), B 4 g a.i./mu, read-out: Control effect (%) of B applied alone (B).
Where [7] appears, read: Echinochloa crus-galli, Echinochloa crusgalli, soil (S), B 8 g a.i./mu, read-out: Control effect (%) of B applied alone (B).
Setting [8] is: Echinochloa crusgalli, soil (S), B 0.6 g a.i./mu.
[9] abbreviates: Echinochloa crusgalli, soil (S), B 1.2 g a.i./mu.
Where [10] appears, read: Potamogeton distinctus, soil, read-out: Control effect (%) of B applied alone (B).
The mark [11] stands for this setting: Echinochloa crusgalli, soil treatment (S), B at 2 g a.i./mu, 21 days.

Like-named read-outs stand apart in the source and are kept apart here.

As for `CC(C)c1ccc(NC(=O)N(C)C)cc1` [isoproturon], the pest or weed control at 120 g/ha (Alopecurus japonicus, soil (S), B 8 g a.i./mu, read-out: Control effect (%) of B applied alone (B)) came to 41.5%. For the same compound, the pest or weed control at 240 g/ha (Alopecurus japonicus, soil (S), B 16 g a.i./mu, read-out: Control effect (%) of B applied alone (B)) came to 53.6%.

For `CS(=O)(=O)c1cc(C(F)(F)F)ccc1C(=O)c1cnoc1C1CC1` [isoxaflutole], the pest or weed control at 15 g/ha (Echinochloa crus-galli, Echinochloa crusgalli, soil (S), B 1 g a.i./mu, read-out: Control effect (%) of B applied alone (B)) worked out at 26.4%. For the setting “Echinochloa crus-galli, Echinochloa crusgalli, soil (S), B 2 g a.i./mu, read-out: Control effect (%) of B applied alone (B)”, the pest or weed control at 30 g/ha came out at 44.3%.

With `CN(C(=O)COc1nc2ccccc2s1)c1ccccc1` [mefenacet], under setting [1], the pest or weed control at 240 g/ha was found to be 18.5%. Also, the pest or weed control at 480 g/ha under setting [2] amounted to 38.3%.

For the compound `COc1cc(OC)nc(NC(=O)NS(=O)(=O)c2c(C3=NOCC(C)O3)c(Cl)nn2C)n1` (centres unmarked) [metazosulfuron], the “Control effect (%) of B applied alone (B)” value (shortened to “Control effect (%)”) is, setting by setting: (Echinochloa crusgalli, soil (S), B 0.75 g a.i./mu) 32.4%; (Echinochloa crusgalli, soil (S), B 1.5 g a.i./mu) 41.6%.

On to `CSc1nnc(C(C)(C)C)c(=O)n1N` [metribuzin], for which the pest or weed control at 75 g/ha (Amaranthus retroflexus, soil (S), B 5 g a.i./mu, read-out: Control effect (%) of B applied alone (B)) amounted to 40.5%. Besides, the pest or weed control at 150 g/ha (Amaranthus retroflexus, soil (S), B 10 g a.i./mu, read-out: Control effect (%) of B applied alone (B)) worked out at 56.2%.

With `CCSC(=O)N1CCCCCC1` [molinate], the pest or weed control at 300 g/ha (Echinochloa crus-galli, Echinochloa crusgalli, soil (S), B 20 g a.i./mu, read-out: Control effect (%) of B applied alone (B)) is 39.6%. The pest or weed control at 600 g/ha (Echinochloa crus-galli, Echinochloa crusgalli, soil (S), B 40 g a.i./mu, read-out: Control effect (%) of B applied alone (B)) came out at 51.7%.

For `CCN(CC)C(=O)C(C)Oc1cccc2ccccc12` (centres unmarked) [napropamide], under setting [3], the pest or weed control at 120 g/ha amounted to 30.1% and the pest or weed control at 240 g/ha came to 42.3%.

In the case of `C#CCOc1cc(-n2nc(C(C)(C)C)oc2=O)c(Cl)cc1Cl` [oxadiargy1], the “Control effect (%)” value runs as follows: under setting [4], 36.2%; under setting [5], 47.9%.

Take `CC(C)Oc1cc(-n2nc(C(C)(C)C)oc2=O)c(Cl)cc1Cl` [oxadiazon]: the pest or weed control at 60 g/ha under setting [6] worked out at 37.2%. Moreover, the pest or weed control at 120 g/ha under setting [7] stood at 51.9%.

With `CC1=C(c2ccccc2)C(=O)N(C(C)(C)c2cc(Cl)cc(Cl)c2)CO1` [oxaziclomefone], the pest or weed control at 7.5 g/ha (Echinochloa crus-galli, 504 h, Echinochloa crusgalli, soil treatment (S), B at 0.5 g a.i./mu, 21 days, read-out: Control effect (%) of B applied alone (B)) was 33.7%. Also, for the setting “Echinochloa crus-galli, 504 h, Echinochloa crusgalli, soil treatment (S), B at 1 g a.i./mu, 21 days, read-out: Control effect (%) of B applied alone (B)”, the pest or weed control at 15 g/ha stood at 51.2%.

With `CCOc1cc(Oc2ccc(C(F)(F)F)cc2Cl)ccc1[N+](=O)[O-]` [oxyfluorfen], the pest or weed control at 15 g/ha (Digitaria sanguinalis, soil (S), B 1 g a.i./mu, read-out: Control effect (%) of B applied alone (B)) came out at 28.6%. Besides, under “Digitaria sanguinalis, soil (S), B 2 g a.i./mu, read-out: Control effect (%) of B applied alone (B)”, the pest or weed control at 30 g/ha amounted to 39.5%.

With `CCC(CC)Nc1c([N+](=O)[O-])cc(C)c(C)c1[N+](=O)[O-]` [pendimethalin], the pest or weed control at 240 g/ha under setting [1] came to 23.6%. Besides, the pest or weed control at 480 g/ha under setting [2] stood at 42.7%.

Take `CC(C)=C1OC(=O)N(c2cc(OC3CCCC3)c(Cl)cc2F)C1=O` [pentoxazone]: under setting [3], the pest or weed control at 30 g/ha was found to be 40.1% and the pest or weed control at 60 g/ha came out at 57.3%.

`O=C(Nc1ccc(F)cc1)c1cccc(Oc2cccc(C(F)(F)F)c2)n1` [picolinafen]: the “Control effect (%)” value stood at 40.8% (Galium aparine, soil (S), B 0.5 g a.i./mu) and 55.7% (Galium aparine, soil (S), B 1 g a.i./mu).

With `CCCOCCN(C(=O)CCl)c1c(CC)cccc1CC` [pretilachlor], where the note is “Lolium multiflorum, soil (S), B 8 g a.i./mu, read-out: Control effect (%) of B applied alone (B)”, the pest or weed control at 120 g/ha turned out to be 23.4%. Further, under setting [1], the pest or weed control at 240 g/ha came out at 50.9%.

Turning to `CSc1nc(NC(C)C)nc(NC(C)C)n1` [prometryne], the pest or weed control at 90 g/ha (Commelina communis, soil (S), B 6 g a.i./mu, read-out: Control effect (%) of B applied alone (B)) was 30.5%. The pest or weed control at 180 g/ha (Commelina communis, soil (S), B 12 g a.i./mu, read-out: Control effect (%) of B applied alone (B)) turned out to be 41.7%.

With `CCCc1ccc2nc(Cl)c(S(=O)(=O)NC(=O)Nc3nc(OC)cc(OC)n3)n2n1` [propyrisulfuron], the “Control effect (%)” value is, setting by setting: under setting [8], 22.6%; under setting [9], 37.5%.

Turning to `C#CCN(C)c1c(C#N)cnn1-c1nn2c(c1Cl)CCCC2` [pyraclonil], the “Control effect (%)” value is reported as 22.5% under setting [5] and 43.6% (Echinochloa crusgalli, soil (S), B 2 g a.i./mu).

As for `Cn1nc(C(F)(F)F)c(CS(=O)(=O)C2=NOC(C)(C)C2)c1OC(F)F` [pyroxasulfone], for the setting “Lolium multiflorum, soil (S), B 2 g a.i./mu, read-out: Control effect (%) of B applied alone (B)”, the pest or weed control at 30 g/ha worked out at 24.7%. Moreover, the pest or weed control at 60 g/ha (Lolium multiflorum, soil (S), B 4 g a.i./mu, read-out: Control effect (%) of B applied alone (B)) was found to be 49.2%.

Turning to `CC(C)N(C)S(=O)(=O)NC(=O)c1cc(-n2c(=O)cc(C(F)(F)F)n(C)c2=O)c(F)cc1Cl` [saflufenacil], the pest or weed control at 3.75 g/ha (Amaranthus retroflexus, soil (S), B 0.25 g a.i./mu, read-out: Control effect (%) of B applied alone (B)) was found to be 35.2%. Further, the pest or weed control at 7.5 g/ha (Amaranthus retroflexus, soil (S), B 0.5 g a.i./mu, read-out: Control effect (%) of B applied alone (B)) is 43.8%.

Take `CCNc1nc(NCC)nc(SC)n1` [simetryn]: under setting [10], the pest or weed control at 90 g/ha was 41.5% and the pest or weed control at 180 g/ha stood at 58.3%.

With `Cc1nn(-c2cc(NS(C)(=O)=O)c(Cl)cc2Cl)c(=O)n1C(F)F` [sulfentrazone], the pest or weed control at 60 g/ha under setting [6] amounted to 34.2%. For the same compound, the pest or weed control at 120 g/ha under setting [7] is 53.6%.

For the compound `CS(=O)(=O)c1ccc(C(=O)C2C(=O)CCCC2=O)c(Cl)c1COCC1CCCO1` (centres unmarked) [tefuryltrione], the “Control effect (%)” value runs as follows: under setting [8], 28.4%; under setting [9], 49.7%.

As to `CCNc1nc(NC(C)(C)C)nc(SC)n1` [terbutryne], the “Control effect (%)” value worked out at 32.4% (Alopecurus japonicus, soil (S), B 12 g a.i./mu) and 41.9% (Alopecurus japonicus, soil (S), B 24 g a.i./mu).

For the compound `CCNc1nc(Cl)nc(NC(C)(C)C)n1` [terbutylazine], the “Control effect (%)” value runs as follows: (Echinochloa crusgalli, soil (S), B 6 g a.i./mu) 33.8%; (Echinochloa crusgalli, soil (S), B 12 g a.i./mu) 52.7%.

Regarding `CN1C[C@H](c2cccc(C(F)(F)F)c2)[C@@H](C(=O)Nc2ccccc2F)C1=O` [tetflupyrolimet], the “Control effect (%)” value (Echinochloa crusgalli, soil treatment (S), B at 1 g a.i./mu, 21 days) is recorded as 34.7% and the “Control effect (%)” value under setting [11] came out at 55.6%.

On to `COc1nc(OC)nc(C(=O)c2cccc(F)c2N(C)S(=O)(=O)C(F)F)n1` [triafamone], for which the “Control effect (%)” value is 27.6% (Echinochloa crusgalli, soil (S), B 0.25 g a.i./mu) and 38.4% under setting [4].

Take `Cc1cc(C)cc(OCC(C)Nc2nc(N)nc(C(C)(C)F)n2)c1` (centres unmarked) [triaziflam]: the “Control effect (%)” value is, setting by setting: under setting [11], 29.4%; (Echinochloa crusgalli, soil treatment (S), B at 4 g a.i./mu, 21 days) 40.5%.

As for `C#CCN1C(=O)C(F)(F)Oc2cc(F)c(-n3c(=O)n(C)c(=S)n(C)c3=O)cc21` [trifludimoxazin], the “Control effect (%)” value is, setting by setting: (Lolium multiflorum, soil (S), B 2 g a.i./mu) 31.5%; (Lolium multiflorum, soil (S), B 4 g a.i./mu) 42.6%.

S-metolachlor: the “Control effect (%)” value reads like this: (Lolium multiflorum, soil (S), B 12 g a.i./mu) 32.1%; (Lolium multiflorum, soil (S), B 24 g a.i./mu) 53.6%.

As for fluridone, the “Control effect (%)” value runs as follows: (Veronica didyma, soil (S), B 1 g a.i./mu) 37.2%; (Veronica didyma, soil (S), B 2 g a.i./mu) 50.4%.

These data come from patent publication US20240327359A1, “3-ISOXAZOLIDINONE COMPOUND, PREPARATION METHOD, HERBICIDAL COMPOSITION AND APPLICATION THEREOF” (QINGDAO KINGAGROOT CHEMICAL COMPOUND CO., LTD., priority 2021, published 2024).
